One series concerns Spontaneously Hypertensive Rats. Nature of the series: Test 1: antihypertensive effects (systolic tail artery blood pressure) and heart rate in spontaneously hypertensive rats, oral. It is filed as in vivo, rat (male, SHR). Conditions: Rattus norvegicus; SHR, oral 1 mg/Kg, 1 hour; read-out: Antihypertensive effects, change (%) in blood pressure, 1 hour later. How it is done:
The antihypertensive effects of the certain compounds of this invention were studied in the following manner.
Among male, spontaneously hypertensive rats (SHRs) of 20 weeks of age or older and 350-430 g heavy all of which had developed hypertension, those having systolic blood pressures of 180 mmHg or higher were used in groups, each of which was constituted of 3-4 of the rats. […] Besides, heart rates were also measured simultaneously. The compounds were each dissolved or suspended in a 0.5% methylcellulose solution and then administered orally.
*All administered orally at a dosage of 1 mg/Kg except for the compounds
**Each percent change in heart rate is indicated by the corresponding
`CCn1cc(C=O)c2nc(N3CCN(c4nc(N)c5cc(OC)c(OC)cc5n4)CC3)ncc2c1=O` [Example 14]: the change in vivo at 1 mg/kg is -1.9%.
In the case of `CCn1cc(C)c2nc(N3CCN(c4nc(N)c5cc(OC)c(OC)cc5n4)CC3)ncc2c1=O` [Example 12], the change in vivo at 1 mg/kg was -11%.
Same read-out and setting: then `CCCn1ccc2nc(N3CCN(c4nc(N)c5cc(OC)c(OC)cc5n4)CC3)ncc2c1=O` [Example 5], with 0%; and `COCCn1ccc2nc(N3CCN(c4nc(N)c5cc(OC)c(OC)cc5n4)CC3)ncc2c1=O` [Example 8], with -0.5%; and `CNc1nc(N2CCN(c3nc(N)c4cc(OC)c(OC)cc4n3)CC2)ncc1C(=O)N(C)C` [Example 69], with -12.9%.
As to `CCn1ccc2c(c1=O)CN=C(N1CCN(c3nc(N)c4cc(OC)c(OC)cc4n3)CC1)N2` [Example 35], the change in vivo at 1 mg/kg was -0.5%.
In the case of `CCN(CC)C(=O)c1ccc(N2CCN(c3nc(N)c4cc(OC)c(OC)cc4n3)CC2)nc1` [Example 93], the change in vivo at 1 mg/kg is -4.5%.
Turning to `COc1cc2nc(N3CCN(c4nc(SC)c5c6c(sc5n4)CCCC6C)CC3)nc(N)c2cc1OC` (stereo not shown) [Example 75], the change in vivo at 1 mg/kg came out at 12.2%.
Still for that read-out and setting: then `CCOC(=O)c1cnc(N2CCN(c3nc(N)c4cc(OC)c(OC)cc4n3)CC2)nc1N` [Example 54], with -4.3%; and `COc1cc2nc(N3CCN(c4ncc5c(n4)CCCC5=O)CC3)nc(N)c2cc1OC` [Example 33], with -20.4%; and `CCNc1nc(N2CCN(c3nc(N)c4cc(OC)c(OC)cc4n3)CC2)ncc1C(=O)N(CC)CC` [Example 67], with -21.4%.

Staying with this series, now noted: Rattus norvegicus; SHR, oral 1 mg/Kg, 3 hours; read-out: Antihypertensive effects, change (%) in blood pressure, 3 hours later.
In the case of `CCn1cc(C=O)c2nc(N3CCN(c4nc(N)c5cc(OC)c(OC)cc5n4)CC3)ncc2c1=O` [Example 14], the change in vivo at 1 mg/kg was -4.8%.
As for `CCn1cc(C)c2nc(N3CCN(c4nc(N)c5cc(OC)c(OC)cc5n4)CC3)ncc2c1=O` [Example 12], the change in vivo at 1 mg/kg is -14.3%.
Regarding `CCCn1ccc2nc(N3CCN(c4nc(N)c5cc(OC)c(OC)cc5n4)CC3)ncc2c1=O` [Example 5], the change in vivo at 1 mg/kg is -6.3%.
Turning to `COCCn1ccc2nc(N3CCN(c4nc(N)c5cc(OC)c(OC)cc5n4)CC3)ncc2c1=O` [Example 8], the change in vivo at 1 mg/kg is -9.5%.
Take `CNc1nc(N2CCN(c3nc(N)c4cc(OC)c(OC)cc4n3)CC2)ncc1C(=O)N(C)C` [Example 69]: the change in vivo at 1 mg/kg was -22.7%.
`CCn1ccc2c(c1=O)CN=C(N1CCN(c3nc(N)c4cc(OC)c(OC)cc4n3)CC1)N2` [Example 35]: the change in vivo at 1 mg/kg was -8.7%.
`CCN(CC)C(=O)c1ccc(N2CCN(c3nc(N)c4cc(OC)c(OC)cc4n3)CC2)nc1` [Example 93]: the change in vivo at 1 mg/kg was -9%.
In the case of `COc1cc2nc(N3CCN(c4nc(SC)c5c6c(sc5n4)CCCC6C)CC3)nc(N)c2cc1OC` (stereo not shown) [Example 75], the change in vivo at 1 mg/kg was determined as 0.5%.
With `CCOC(=O)c1cnc(N2CCN(c3nc(N)c4cc(OC)c(OC)cc4n3)CC2)nc1N` [Example 54], the change in vivo at 1 mg/kg is -11.4%.
On the same count and under the same terms, then `COc1cc2nc(N3CCN(c4ncc5c(n4)CCCC5=O)CC3)nc(N)c2cc1OC` [Example 33], with -27%; and `CCNc1nc(N2CCN(c3nc(N)c4cc(OC)c(OC)cc4n3)CC2)ncc1C(=O)N(CC)CC` [Example 67], with -28.6%.

The series is the same for the next values; noted with them: Rattus norvegicus; SHR, oral 1 mg/Kg, 6 hours; read-out: Antihypertensive effects, change (%) in blood pressure, 6 hours later.
`CCn1cc(C=O)c2nc(N3CCN(c4nc(N)c5cc(OC)c(OC)cc5n4)CC3)ncc2c1=O` [Example 14]: the change in vivo at 1 mg/kg is -13.9%.
Still for that read-out and setting: then `CCn1cc(C)c2nc(N3CCN(c4nc(N)c5cc(OC)c(OC)cc5n4)CC3)ncc2c1=O` [Example 12], with -19%; and `CCCn1ccc2nc(N3CCN(c4nc(N)c5cc(OC)c(OC)cc5n4)CC3)ncc2c1=O` [Example 5], with -13.2%.
With `COCCn1ccc2nc(N3CCN(c4nc(N)c5cc(OC)c(OC)cc5n4)CC3)ncc2c1=O` [Example 8], the change in vivo at 1 mg/kg is -11.4%.
On the same count and under the same terms, then `CNc1nc(N2CCN(c3nc(N)c4cc(OC)c(OC)cc4n3)CC2)ncc1C(=O)N(C)C` [Example 69], with -24.7%; and `CCn1ccc2c(c1=O)CN=C(N1CCN(c3nc(N)c4cc(OC)c(OC)cc4n3)CC1)N2` [Example 35], with -16.3%; and `CCN(CC)C(=O)c1ccc(N2CCN(c3nc(N)c4cc(OC)c(OC)cc4n3)CC2)nc1` [Example 93], with -10.5%.
On the same count and under the same terms, to `COc1cc2nc(N3CCN(c4nc(SC)c5c6c(sc5n4)CCCC6C)CC3)nc(N)c2cc1OC` (stereo not shown) [Example 75] belongs -7.8%; to `CCOC(=O)c1cnc(N2CCN(c3nc(N)c4cc(OC)c(OC)cc4n3)CC2)nc1N` [Example 54], -16.7%; to `COc1cc2nc(N3CCN(c4ncc5c(n4)CCCC5=O)CC3)nc(N)c2cc1OC` [Example 33], -32.1%.
Take `CCNc1nc(N2CCN(c3nc(N)c4cc(OC)c(OC)cc4n3)CC2)ncc1C(=O)N(CC)CC` [Example 67]: the change in vivo at 1 mg/kg is -38.4%.

Still in this series, the particulars now being: Rattus norvegicus; SHR, oral 1 mg/Kg, 24 hours; read-out: Antihypertensive effects, change (%) in blood pressure, 24 hours later.
On to `CCn1cc(C=O)c2nc(N3CCN(c4nc(N)c5cc(OC)c(OC)cc5n4)CC3)ncc2c1=O` [Example 14], for which the change in vivo at 1 mg/kg was -11%.
As to `CCn1cc(C)c2nc(N3CCN(c4nc(N)c5cc(OC)c(OC)cc5n4)CC3)ncc2c1=O` [Example 12], the change in vivo at 1 mg/kg is -6.7%.
In the case of `CCCn1ccc2nc(N3CCN(c4nc(N)c5cc(OC)c(OC)cc5n4)CC3)ncc2c1=O` [Example 5], the change in vivo at 1 mg/kg was -6.3%.
As to `COCCn1ccc2nc(N3CCN(c4nc(N)c5cc(OC)c(OC)cc5n4)CC3)ncc2c1=O` [Example 8], the change in vivo at 1 mg/kg is -4%.
The same measure, in the same setting: to `CNc1nc(N2CCN(c3nc(N)c4cc(OC)c(OC)cc4n3)CC2)ncc1C(=O)N(C)C` [Example 69] belongs -4.6%; to `CCn1ccc2c(c1=O)CN=C(N1CCN(c3nc(N)c4cc(OC)c(OC)cc4n3)CC1)N2` [Example 35], -15.9%.
Still for that read-out and setting: then `CCN(CC)C(=O)c1ccc(N2CCN(c3nc(N)c4cc(OC)c(OC)cc4n3)CC2)nc1` [Example 93], with -5%; and `COc1cc2nc(N3CCN(c4nc(SC)c5c6c(sc5n4)CCCC6C)CC3)nc(N)c2cc1OC` (stereo not shown) [Example 75], with -3.9%; and `CCOC(=O)c1cnc(N2CCN(c3nc(N)c4cc(OC)c(OC)cc4n3)CC2)nc1N` [Example 54], with -4.8%.
`COc1cc2nc(N3CCN(c4ncc5c(n4)CCCC5=O)CC3)nc(N)c2cc1OC` [Example 33]: the change in vivo at 1 mg/kg is -9.7%.
Consider `CCNc1nc(N2CCN(c3nc(N)c4cc(OC)c(OC)cc4n3)CC2)ncc1C(=O)N(CC)CC` [Example 67], for which the change in vivo at 1 mg/kg is -16.7%.

Staying with this series, now noted: SHR, oral 1 mg/Kg, maximum value.
Turning to `CCn1cc(C=O)c2nc(N3CCN(c4nc(N)c5cc(OC)c(OC)cc5n4)CC3)ncc2c1=O` [Example 14], the “Change (%) in heart rate” value is reported as “+7.3%”.
Take `CCn1cc(C)c2nc(N3CCN(c4nc(N)c5cc(OC)c(OC)cc5n4)CC3)ncc2c1=O` [Example 12]: the “Change (%) in heart rate” value is reported as “+7.0%”.
As to `CCCn1ccc2nc(N3CCN(c4nc(N)c5cc(OC)c(OC)cc5n4)CC3)ncc2c1=O` [Example 5], the “Change (%) in heart rate” value is on record as “+2.6%”.
For `COCCn1ccc2nc(N3CCN(c4nc(N)c5cc(OC)c(OC)cc5n4)CC3)ncc2c1=O` [Example 8], the “Change (%) in heart rate” value is reported as “+5.2%”.
Same read-out and setting: to `CNc1nc(N2CCN(c3nc(N)c4cc(OC)c(OC)cc4n3)CC2)ncc1C(=O)N(C)C` [Example 69] belongs “+7.4%”; to `CCn1ccc2c(c1=O)CN=C(N1CCN(c3nc(N)c4cc(OC)c(OC)cc4n3)CC1)N2` [Example 35], “+9.1%”.
As for `CCN(CC)C(=O)c1ccc(N2CCN(c3nc(N)c4cc(OC)c(OC)cc4n3)CC2)nc1` [Example 93], the “Change (%) in heart rate” value is recorded as “+8.0%”.
In the case of `COc1cc2nc(N3CCN(c4nc(SC)c5c6c(sc5n4)CCCC6C)CC3)nc(N)c2cc1OC` (stereo not shown) [Example 75], the “Change (%) in heart rate” value was “+8.2%”.
Still for that read-out and setting: then `CCOC(=O)c1cnc(N2CCN(c3nc(N)c4cc(OC)c(OC)cc4n3)CC2)nc1N` [Example 54], with “+5.2%”; and `COc1cc2nc(N3CCN(c4ncc5c(n4)CCCC5=O)CC3)nc(N)c2cc1OC` [Example 33], with “+17.5%”.
`CCNc1nc(N2CCN(c3nc(N)c4cc(OC)c(OC)cc4n3)CC2)ncc1C(=O)N(CC)CC` [Example 67]: the “Change (%) in heart rate” value was “+7.4%”.
